Measured values: US12409174B2, “Combination of zibotentan and dapagliflozin for the treatment of endothelin related diseases” (priority 2020, dated 2025)
Where two headings read alike, the source gives them in different places.

Tests used:
[1] = system: patients with CKD with and without type 2 diabetes; details: dapagliflozin 10 mg
Protocol: The effect of dapagliflozin on albuminuria was investigated in patients with CKD with and without type 2 diabetes. In this analysis from the Phase 3 DAPA CKD trial, the efficacy of dapagliflozin was assessed to determine whether treatment with dapagliflozin reduces the level of albuminuria in patients with CKD.
In the trial, 4304 patients with estimated glomerular filtration rate 25-75 mL/min/1·73 m2 and urinary UACR 200-5000 mg/g were randomized to dapagliflozin (10 mg) or placebo. Change in albuminuria was assessed as the mean change in log-transformed UACR from baseline to end of study. Regression in UACR stage, defined as a transition from macroalbuminuria (≥300 mg/g) to micro- or normoalbuminuria (<300 mg/g), and progression in UACR stage, defined as a transition from <3000 mg/g to ≥3000 mg/g, were additional endpoints.

[2] = Zibotentan blood concentrations, Experiment 1; format: in vivo, male Wistar rats; details: male, Wistar, rat, whole blood, oral, Exp 1; for concentration at 4 h: 4 hr post first dose
Protocol: (§1) In the first experiment (Experiment 1), the effect of zibotentan on haematocrit (Hct) concentration was determined when zibotentan was administered peroral (p.o) QD for 14 days. […] Animals were weighed daily prior to dosing throughout the experiment. Blood samples (20 μL) for bioanalysis were taken at 4 and 24 hr after the first dose via the tail vein from conscious animals and 24 hr after the last dose via retroorbital route from anesthetized animals. Blood samples were collected via tail vein (100 μL) for Hct concentration and haemoglobin (Hb) measurements, on day 7 and on day 14, 1-2 hr after dosing. Twenty-four hour urine was collected for the measurement of urinary glucose, urine volume and electrolytes between doses nine and ten. Animals were terminated 24 hr after the last dose. On the day of termination, animals were anesthetized using 5% isoflurane, and blood was collected via the retroorbital route (in heparin-coated microvette, Sarsted) and centrifuged at 3,500 rpm at 4° C. for 10 minutes, plasma was collected and stored at −80° C. degrees prior to analysis. Animals were then euthanized by the removal of the heart. Both the heart and the kidneys were extracted and weighed. From the right kidney, a 4 mm thick slice of tissue was collected and fixed in 4% formaldehyde for subsequent histological analysis and a piece of cortical kidney tissue and heart tissue was collected for gene expression analysis.
A volume of 20 μL whole blood was precipitated with 150 μL acetonitrile containing internal standard and quickly vortexed, followed by a 20 min centrifugation at 3220 g and 4° C. […] Zibotentan samples were further diluted twice and three times at a 1:10 ratio with 33% acetonitrile, to ensure all diluted samples were detectible within the calibration range.
Sample concentrations were determined against matrix-spiked calibration standards over a range of 0.010 μM-10.0 μM for dapagliflozin and 0.75 μM-376 μM for zibotentan, applying weighted linear regression (1/X^2) using Waters TargetLynx software version XS V4.2 SCN986. […] Analytical bias was <15% over the concentration range for both analytes.
Separation was achieved using the following elution gradient: 0 min to 1.5 min, 4% B ramping up to 95% B; 1.5 min to 2.3 min, kept at 95% B; 2.3 min to 2.4 min, 95% B to 4% B and kept at 4% B until 2.7 min. The flow rate was 0.7 mL/min.

[3] = system: male Wistar rats on 4% salt diet; test: Effect of zibotentan on haematocrit (Hct) concentration, Experiment 1; format: in vivo; details: Exp 1; for Hct concentration compared to vehicle: FIG. 4
Protocol: The effect of dapagliflozin and zibotentan on haematocrit (Hct) concentration in male Wistar rats on 4% salt diet was investigated.
as §1
(§2) For Hct and Hb analysis, 100 μl of blood from rat's tail vein was collected and measured using CG8 cartridges analysed with an iSTAT instrument (Abbott Point of Care Inc, Abbot Park, IL, USA).
(§3) Significance was set at p<0.05.

[4] = Effect of zibotentan on body weight, Experiment 1; format: in vivo, male Wistar rats; details: Exp 1; for Body weight, Difference in means vs Vehicle: log scale, linear mixed effects model
Protocol: as §1, §3

[5] = system: male Wistar rats on 4% salt diet; test: Effect of zibotentan on Hb, Experiment 1; format: in vivo; details: Exp 1
Protocol: as §1, §2, §3

[6] = system: male Wistar rats on 4% salt diet; test: Effect of zibotentan on kidney and heart weight, Experiment 1; format: in vivo
Protocol: as §1, §3

[7] = Exp 1, Zibo 30 mg/kg p.o. QD 14 days
[8] = Exp 1, Zibo 100 mg/kg p.o. QD 14 days
[9] = Exp 1, Zibo 300 mg/kg p.o. QD 14 days
[10] = Exp 1, zibotentan 100 mg/kg, 14 days

CCOc1ccc(Cc2cc([C@@H]3O[C@H](CO)[C@@H](O)[C@H](O)[C@H]3O)ccc2Cl)cc1 [Dapa, (1S)-1,5-anhydro-1-{4-chloro-3-[(4-ethoxyphenyl)methyl]phenyl}-D-glucitol]
Progression in UACR stage, hazard ratio ([1]; 3820 patients with UACR<3000 mg/g at baseline, 95% CI 0.32-0.52): 0.41 | Regression in UACR stage, hazard ratio ([1]; 3860 patients with UACR≥300 mg/g at baseline, 95% CI 1.60-2.05): 1.81 | UACR reduction compared to placebo ([1]; CKD patients with and without type 2 diabetes, baseline to end of study, 95% CI 25.2-33.1%): 29.3% | UACR reduction compared to placebo ([1]; CKD patients with type 2 diabetes, 95% CI 30.6-39.4%): 35.1% | UACR reduction compared to placebo ([1]; CKD patients without type 2 diabetes, 95% CI 5.9-22.9%): 14.8%

COc1nc(C)cnc1NS(=O)(=O)c1cccnc1-c1ccc(-c2nnco2)cc1 [Zibo, N-(3-methoxy-5-methylpyrazin-2-yl)-2-[4-(1,3,4-oxadiazol-2-yl)phenyl]pyridine-3-sulfonamide]
concentration at 24 h ([2]; 30 mg/kg, Zibo 30 mg/kg p.o. QD 14 days, 24 hr post last dose): 7.39 ± 10.4 µM | concentration at 4 h ([2]; 30 mg/kg, Zibo 30 mg/kg p.o. QD): 53.8 ± 17.4 µM | concentration at 24 h ([2]; 30 mg/kg, Zibo 30 mg/kg p.o. QD, 24 hr post first dose): 4.68 ± 3.93 µM | concentration at 24 h ([2]; 100 mg/kg, Zibo 100 mg/kg p.o. QD 14 days, 24 hr post last dose): 39 ± 32.4 µM | concentration at 4 h ([2]; 100 mg/kg, Zibo 100 mg/kg p.o. QD): 134 ± 43.8 µM | concentration at 24 h ([2]; 100 mg/kg, Zibo 100 mg/kg p.o. QD, 24 hr post first dose): 39.1 ± 38.1 µM | concentration at 24 h ([2]; 300 mg/kg, Zibo 300 mg/kg p.o. QD 14 days, 24 hr post last dose): 249 ± 193 µM | concentration at 4 h ([2]; 300 mg/kg, Zibo 300 mg/kg p.o. QD): 247 ± 46 µM | concentration at 24 h ([2]; 300 mg/kg, Zibo 300 mg/kg p.o. QD, 24 hr post first dose): 176 ± 108 µM | Hct concentration compared to vehicle (significant decrease?) ([3]; zibotentan 30 mg/kg p.o. QD, day 14): not for the lower dose | Hct concentration compared to vehicle ([3]; zibotentan 30, 100 and 300 mg/kg p.o. QD, day 7): significant (p<0.05) decrease | Hct concentration compared to vehicle ([3]; zibotentan 100 and 300 mg/kg p.o. QD, day 14): significant (p<0.05) decrease | Body weight, Difference in means vs Vehicle ([4]; Zibo 30 mg/kg p.o. QD 14 days): 0.02 | Body weight, Difference in means vs Vehicle ([4]; Zibo 100 mg/kg p.o. QD 14 days): 0.02 | Body weight, Difference in means vs Vehicle ([4]; Zibo 300 mg/kg p.o. QD 14 days): 0.01 | Body weight change compared to vehicle ([4]; zibotentan 30, 100 and 300 mg/kg): no difference | Day 7 Hb ([5]; Zibo 30 mg/kg p.o. QD): 146.4 g/L | Day 14 Hb ([5]; Zibo 30 mg/kg p.o. QD): 156.8 g/L | Day 7 Hb ([5]; Zibo 100 mg/kg p.o. QD): 141.5 g/L | Day 14 Hb ([5]; Zibo 100 mg/kg p.o. QD): 148.5 g/L | Day 7 Hb ([5]; Zibo 300 mg/kg p.o. QD): 143.2 g/L | Day 14 Hb ([5]; Zibo 300 mg/kg p.o. QD): 150.3 g/L | Hb compared to vehicle ([5]; zibotentan 30, 100 and 300 mg/kg, day 7): significant decrease | Hb compared to vehicle ([5]; zibotentan 100 and 300 mg/kg, day 14): significant decrease | Kidney/tibia length [6]: 54.00 ± 0.80 mg/mm | Heart weight [6, 7]: 1.00 ± 0.02 g | Heart/tibia length [6, 7]: 25.00 ± 0.47 mg/mm | Kidney weight [6, 7]: 2.13 ± 0.04 g | Heart weight [6, 8]: 1.05 ± 0.01 g | Heart/tibia length [6, 8]: 27.00 ± 0.37 mg/mm | Kidney weight [6, 8]: 2.16 ± 0.05 g | Kidney/tibia length [6, 8]: 55.0 ± 1.65 mg/mm | Heart weight [6, 9]: 0.98 ± 0.00 g | Heart/tibia length [6, 9]: 25.00 ± 0.24 mg/mm | Kidney/tibia length [6, 9]: 57.0 ± 1.39 mg/mm | Heart weight compared to vehicle [6, 10]: increase | Heart weight increase after normalizing with tibia length [6, 10]: not statistically significant | Kidney weight with or without normalizing with tibia length compared to vehicle ([6]; Exp 1, zibotentan 300 mg/kg, 14 days): increase
